US20100249698A1, “CONTROLLED EXOTHERM OF CYANOACRYLATE FORMULATIONS” (priority 2009, published 2010)

Assays:
[1] = Setting time and exotherm (setting temperature) of cyanoacrylate film polymerized via initiator-impregnated porous applicator tip; assay type: physicochemical; conditions: Quadrol as initiator in porous tip with 2-OCA formulations A and B
[2] = potentiometric titration at 25° C. in 0.15 M sodium chloride solution; cited from earlier work

cure time [1]: clinically acceptable timeframe
Structure (SMILES): CC(O)CN(CCN(CC(C)O)CC(C)O)CC(C)O (stereo not drawn) [Quadrol, N,N,N′,N′-tetrakis(2-hydroxypropyl)ethylenediamine]
pKa1 (tertiary amine group) [2]: 8.99±0.04
pKa2 (quaternary ammonium form) [2]: 4.30±0.04
